According to patent publication US5157052A, “Method for inhibiting IgE production” (priority 1990, dated 1992):

Columns and labels:
IgE [1] = assay: Serum IgE response induced by FF1-4D5 + H∂A1 anti-IgD antibodies (ELISA, Assay A / Assay F); type: in vivo, mouse (Balb/c female)
Experimental: Mouse hybridoma cells expressing either FF1-4D5 antibody or H∂A1 antibody are thawed, established in culture, and incubated in mice as ascite tumors. FF1-4D5 antibody is a mouse IgG2a monoclonal antibody of the b allotype that binds the Fd fragment of the ∂ chain of the a allotype IgD which activates β cells through antigen internalization and processing, promoting cognate interactions with antigen-specific T cells (D. K. Goroff et al., J. Immunol. 136: 2382 (1986)). H∂A1 antibody is a mouse IgG2b of the b allotype that binds the Fc fragment of the ∂ chain of the a allotype IgD which activates β cells through crosslinking IgD (I. M. Zitron and B. L. Clevinger, J. Exp. Med. 152: 1135 (1980)). Each antibody is purified from their respective ascites tumor fluid. […] Serum from the injected mice is recovered and the mean concentration of IgE determined.
Serum levels of IgE are determined and IgE levels are shown to be inhibited in a dose dependent manner.
ELISA (enzyme linked immunosorbant assay) measurements of IgE are as follows. About 5 μg of B1E3 antibody in 100 μl borate buffered saline (pH8.5) is added to wells of a NuncImmulon II 96 well plate (DiRuscio & Assoc., St. Louis, Mo.) at 37° C. for 90 minutes. The non-bound antibody is removed by flicking the plate. Unreacted sites on the plastic plate are blocked by adding about 200 μl of a 2% solution of newborn bovine serum (NBS) in PBS at 37° C. for 60 minutes. The standard IgE (or an unknown murine serum sample) is diluted to between about 4 ng/ml-256 ng/ml in Hanks-HS (20 mM Hepes, 2% NBS in Hanks Balanced Salt Solution, Gibco, Grand Island, N.Y.) or to 1/200 to 1/1000 in Hanks-HS respectively. 100 μl of standard (or unknown dilutions) are added in triplicate to the wells of the plate and allowed to absorb to B1E3 antibody at about 37° C. for 2-4 hours. The solution is removed by flicking the plate and each well is washed with about 0.5 ml 0.05% Tween 20-PBS 5 times. About 100 μl of biotinylated R1E4, called the primary antibody, diluted to 200 ng/ml is added to all wells and incubated at about 4° C. overnight. The solution is removed by flicking the plate and washed 5 times as described above. The developing reagent (Avidin and biotin-horse radish peroxidase) is incubated in 2% NBS in PBS at ambient temperature for 30 minutes, according to manufacturer's specifications (Vector Laboratories, Burlingame, Calif.). About 100 μl of developing reagent is added to each well and incubated at ambient temperature for 30 minutes. Colorimetric substrate for the developing reagent (ABTS peroxidase substrate system, KPL, Gaithersburg, Md.) is prepared by mixing equal volumes of solutions A and B and incubating at ambient temperature for 60 minutes. The developing reagent solution is removed by flicking the plate and washed 5 times as described above. About 100 μl of the mixture of substrates is added to each well and incubated at ambient temperature for 60 minutes. The optical density of each well is determined on a BioTek ELISA reader (Biotek Instruments, Inc., Burlington, Vermont) and the absorbance data transferred electronically to a DEC VAX mainframe computer. A standard curve is fitted to the IgE standard optical densities using straight line, linear regression statistical fits. IgE in the unknown serum samples is determined by comparing the optical density of the unknown to the standard curve and multiplying that number by the dilution of serum used in the assay.
Stimulation of a transient serum IgE response in mouse with two monoclonal antibodies directed against IgD is carried out as follows.
Mouse hybridoma cells expressing either FF1-4D5 antibody or H∂Al antibody are thawed, established in culture, and incubated in CB6 F1 female mice as an ascites tumor and each immunoglobulin is purified from the ascites fluid as described above. […]

IgE [2] = assay: ED50 for inhibition of IgE calculated from the examples; type: in vivo, mouse; conditions: dose to achieve 50% inhibition of IgE
Experimental: From the data in the above examples, the effective dose of each prostaglandin to achieve 50% inhibition of IgE (ED50) was calculated.

[3] = Diarrheal effects in rats; conditions: rat, in vivo, po
IgG2a = assay: Serum IgG2a in anti-IgD stimulated mice (two site sandwich ELISA, Assay C); type: in vivo, mouse (Balb/c female); conditions: 40 μg days 3 and 4; for IgG2a ± SD: Table 11
Experimental: Sera from mice treated with compounds in accordance with the method of the invention are analyzed for levels of IgG1, IgG2a, IgG3, and IgM.
Measurement of mouse IgG2a by a two site sandwich ELISA is performed in substantial accordance with the teaching of Assay B except with the following changes. NuncImmulon II plates are used in this assay. The IgG2a standard is purchased from Southern Biotech. The standard curve is linear between 4-250 ng/ml. Serum containing IgG2a is diluted 1/6400 to 1/1,000,000. About a 1/6,000 dilution of goat anti mouse IgG2a (Southern Biotech) conjugated to alkaline phosphatase is used.
Sera from the mice described in Example 13 are analyzed for the levels of IgG1, IgG2a, and IgG3 by Assays B, C, and D, respectively.
Two groups of 4 Balb/c female mice per group are injected with both 100 μg FF1-4D5 antibody and 100 μg H∂A1 antibody. One of these groups is a stimulated control designated Group B. On day 3 and 4, the other group is injected with 40 μg (±) methyl 11α, 16-dihydroxy-1-methyl-9-oxoprosta-4Z,13E-dien-1-oate. Another group is injected with only PBS as an unstimulated control (Group A). On day -1 and 8, 50-100 μl of serum is recovered and analyzed for IgE, IgG1 and IgG2a by Assays A, B, and C, respectively.
3 groups of 4 Balb/c female mice per group are injected with both 100 μg FF1-4D5 antibody and 100 μg H∂A1 antibody on day 0. Group A is given no further treatment. On day 3 and 4, one group of mice is injected with 20 μg (±) methyl 2-[2-[3R-3α-hydroxy-2β-(4-hydroxy-4-methyl-1E-octenyl-5-oxo-1α-cyclopentyl]-methyl]cyclopropanebutanoate (Group B) and another group with 20 μg (±) methyl 2-[2-[3R-3α-hydroxy-2β-(4-hydroxy-4-methyl-1E-octenyl)-5-oxo-1α-cyclopentyl]ethyl]cyclopropanepropanoate (Group C) as in Example 13. On day -1 and 8, 50-100 μl of serum is recovered and analyzed for IgE, IgG1, IgG2a and IgG3 by Assays A, B, C and D, respectively. The selectivity of inhibition of IgE is shown in Table 12.
Three groups of 5 Balb/c female mice per group are injected with both 100 μg FF1-4D5 antibody and 100 μg H∂A1 antibody on day 0. Group A is a control with no further treatment. On day 3 and 4, the mice are injected with 20 μg (±) methyl 11α,16-dihydroxy-4,4,16-trimethyl-9-oxoprosta-13E-en-1-oate (Group B) or 20 μg (±) methyl 11α,16-dihydroxy-16-methyl-9-oxoprosta-3,5Z,13E-trien-1-oate (Group C) as in Example 13. On day -1 and 8, […] of serum is recovered and analyzed for IgE, IgG1, IgG2a, IgG3 and IgM by Assays A, B, C, D and E, respectively.

IgG1 = assay: Serum IgG1 in anti-IgD stimulated mice (two site sandwich ELISA, Assay B); type: in vivo, mouse (Balb/c female); conditions: 40 μg days 3 and 4; for IgG1 ± SD: Table 11
[4] = Table 15, 20 μg days 3 and 4, day 8 (control 5090)
[5] = Table 15, 20 μg days 3 and 4, day -1 baseline before treatment
[6] = Table 16, 10 μg days 3 and 4, day 8 (control 8548)
[7] = Table 16, 10 μg days 3 and 4, day -1 baseline before treatment
[8] = day -1 baseline before treatment

| Compound | de novo IgE synthesis (IgE [1]; 20 μg days 3 and 4, Example 26) | IgE ± SD (IgE [1]; [4]) | IgE ± SD (IgE [1]; [5]) | ED50 IgE Inhibition (IgE [2]) | de novo IgE synthesis (IgE [1]; 10 μg days 3 and 4, Example 27) | IgE ± SD (IgE [1]; [6]) | IgE ± SD (IgE [1]; [7]) | TD50 at 8 h [3] | also measured |
| --- | --- | --- | --- | --- | --- | --- | --- | --- | --- |
| CCCCC(C)(O)C/C=C/[C@H]1[C@H](O)CC(=O)[C@@H]1CCCCCCC(=O)Oc1ccc(NC(C)=O)cc1 (mixture of isomers) [(±) 4-(acetylamino)phenyl-11α,16-dihydroxy-16-methyl-9-oxoprost-13E-en-1-oate] | inhibit de novo IgE synthesis | 1880 ± 319 ng/mL | < 800 ng/mL | 1.0 μg/mouse/TID |  |  |  |  |  |
| CCCCC(C)(O)C/C=C/[C@H]1[C@H](O)CC(=O)[C@@H]1CCCCCCC(=O)O (mixture of isomers) [(±) 11α,16-dihydroxy-16-methyl-9-oxo-prost-13E-en-1-oic acid] | inhibit de novo IgE synthesis | 1499 ± 132 ng/mL | 1029 ± 362 ng/mL |  |  |  |  |  |  |
| CCCCC(C)(O)C/C=C/[C@H]1[C@H](O)CC(=O)[C@@H]1CCCCCCC(=O)OC (mixture of isomers) [(±) methyl 11α,16-dihydroxy-16-methyl-9-oxoprost-13E-en-1-oate] |  |  |  | 1.5 μg/mouse/TID | inhibit de novo IgE synthesis | 2123 ± 257 ng/mL | < 1600 ng/mL | 0.36 mg/kg |  |
| CCCCC(C)(O)C/C=C/[C@H]1[C@H](O)CC(=O)[C@@H]1CC/C=C\CCC(=O)OC (mixture of isomers) [(±) methyl 11α,16-dihydroxy-16-methyl-9-oxoprosta-4Z,13E-dien-1-oate] |  |  |  | 4.0 μg/mouse/TID |  |  |  | 0.049 mg/kg | de novo IgE synthesis (IgE [1]; 40 μg days 3 and 4): inhibits de novo IgE synthesis; IgE ± SD (IgE [1]; Table 11, 40 μg days 3 and 4, day 8 (control 15890)): 3973 ± 905 ng/mL; IgE ± SD (IgE [1]; Table 11, 40 μg days 3 and 4, day -1 baseline before treatment): 1717 ± 313 ng/mL; effect on IgG2a (IgG2a): does not effect IgG1 or IgG2a; IgG2a ± SD (IgG2a; day 9 (control 1056)): 1058 ± 202 µg/mL; IgG2a ± SD (IgG2a; [8]): 160 ± 130 µg/mL; effect on IgG1 (IgG1): does not effect IgG1 or IgG2a; IgG1 ± SD (IgG1; day 9 (control 19800)): 37728 ± 6913 µg/mL; IgG1 ± SD (IgG1; [8]): 2331 ± 2212 µg/mL |
| CCCCC(C)(O)CCC[C@H]1[C@H](O)CC(=O)[C@@H]1CCCCCCC(=O)OC (mixture of isomers) [(±) methyl-11α,16-dihydroxy-16-methyl-9-oxoprostan-1-oate] |  |  |  | 4.8 μg/mouse/TID | inhibit de novo IgE synthesis | 3844 ± 238 ng/mL | < 1600 ng/mL |  |  |
| CCCCC(C)(O)C/C=C/[C@H]1[C@H](O)CC(=O)[C@@H]1CCCCCCC(=O)OC(C)C (relative stereo) [(±) methylethyl-11α,16-dihydroxy-16-methyl-9-oxoprost-13E-en-1-oate] |  |  |  | 1.5 μg/mouse/TID |  | 2127 ± 149 ng/mL | < 1600 ng/mL |  |  |
